Like-named read-outs stand apart in the source and are kept apart here.
Key:
Type in all cases: in vivo
[1] = tested on: Erysiphe graminis f. sp. tritici; assay: Efficacy against Erysiphe graminis f.sp. tritici on wheat (Example B-5), foliar spray, synergy by COLBY
From the text: A synergistic effect exists whenever the action of an active ingredient combination is greater than the sum of the actions of the individual components.
The action to be expected E for a given active ingredient combination obeys the so-called COLBY formula and can be calculated as follows (COLBY, S. R. “Calculating synergistic and antagonistic responses of herbicide combination”. Weeds, Vol. 15, pages 20-22; 1967):
According to Colby, the expected (additive) action of active ingredients I+II using p+q ppm of active ingredient is [formula]
If the action actually observed (O) is greater than the expected action (E), then the action of the combination is superadditive, i.e. there is a synergistic effect.
Five to ten wheat seeds c.v. “Arina” are sown in plastic pots of 7 cm diameter and grown for 7 to 12 days at 20° C., 50-70% rH. When the primary leaves have fully expanded, the plants are spray treated with aqueous spray liquors containing the single compounds, or mixtures thereof (hereinafter a.i.). All compounds are used as experimental or commercially available formulations, combinations are applied as tank mixtures. The application comprises foliar spraying to near runoff (three pots per treatment). 24 hours after the application or 24 hours before application, the plants are inoculated in a settling tower with fresh spores of Erysiphe graminis f. sp. tritici. The plants are then incubated in a growth chamber at 20° C., 60% rH. Seven days after the inoculation, the percentage of infection on primary leaves is evaluated. The efficacy of the a.i. is determined by comparing the degree of fungal attack on treated plants with that on untreated, similarly inoculated and incubated check plants. Each a.i. is tested at 4 to 5 concentrations. The synergie factor is calculated according to the COLBY method.

Septoria spp. = assay: Activity against Septoria, field trial, winter wheat cv. Consort (Example B-8); settings: for % infested leaf after 84 days: winter wheat field trial, untreated control 97
Method: A field trial was carried out in Great Britain with winter wheat, cv. Consort. The experiment was arranged with 4 replicates in randomized plots each of 36 m^2. Application was carried out at 5-10% infected leaf area on the lower leaves. Cyproconazole was used as a EC240, quinoxyfen as a SC500 and the mixture cyproconazole/quinoxyfen as a SC155 formulation. Cyproconazole was applied at 80 g a.i./ha, quinoxyfen at 75 g a.i./ha and the mixture contained the same amounts of the individual active ingredients. The spray volume of all treatments was 200 l/ha. Disease assessment of Septoria spp. was estimated 84 days after application when the untrated control plants had approximated 97% infected leaf area. Results are expressed as % activity calculated on the basis of % infected leaf area.

Erysiphe graminis = assay: Field test on Erysiphe graminis, winter wheat cv. Kanzler (Example B-6); settings: for % infested leaf area after 29 days: winter wheat field trial, untreated control 15
Method: A field trial was carried out in Germany with winter wheat, cv.Kanzler. The experiment was arranged with 4 replicates in randomized plots of 12.5 m^2. Cyproconazole was used as a EC240, quinoxyfen as a SC500 and the mixture cyproconazole/quinoxyfen as a SC155 formulation. Cyproconazole was applied at 80 g a.i./ha, quinoxyfen at 75 g a.i./ha and the mixture contained the same amounts of the individual active ingredients. The spray volume of all treatments was 400 l/ha. Disease assessment of Erysiphe graminis was estimated 29 days after application when untrated control plants had 15% infected leaf area. Results are expressed as % activity calculated on the basis of % infected leaf area.

Uncinula necator = assay: Activity against Uncinula necator on grape plants (Example B-7)
Method: The deposit is then allowed to dry. One day later, the treated plants are inoculated by dusting freshly harvested conidia over the test plants; then the plants were incubated in a growt chamber for 10-14 days at +22° C. and 70% r.h. The efficacy of the test compounds is determined by comparing the degree of fungal attack with that on untreated, similarly inoculated check plants. I

[2] = curative application, single a.i. 0.1 mg a.i./l
[3] = protective application, single a.i. 0.1 mg a.i./l
[4] = protective application, single a.i. 0.25 mg a.i./l
[5] = Blumeria graminis, foliar, curative application, single a.i. 0.05 mg a.i./l, read-out: % activity observed

CCCC1COC(Cn2cncn2)(c2ccc(Cl)cc2Cl)O1 (stereo not shown) [Propiconazole] was tested, and the “% activity observed” value [1, 2] was 34%, the “% activity observed” value [1, 3] was 1% and the “% activity observed” value [1, 4] was 12%.

With CC(C1CC1)C(O)(Cn1cncn1)c1ccc(Cl)cc1 (stereo not shown) [Cyproconazole] the “% activity observed” value (Septoria spp.; EC240, 80 g a.i./ha, 84 days after application) was 42%, the “% infested leaf after 84 days” value (Septoria spp.; EC240, 80 g a.i./ha) was 56% and the “% activity observed” value ([1]; curative application, single a.i. 0.05 mg a.i./l) was 7%. For the same molecule, the “% activity observed” value [1, 2] was 8%, the “% activity observed” value ([1]; curative application, single a.i. 0.25 mg a.i./l) was 16% and the “% activity observed” value ([1]; curative application, single a.i. 0.5 mg a.i./l) was 24%. For the same molecule, the “% activity observed” value ([1]; protective application, single a.i. 0.05 mg a.i./l) was 1%, the “% activity observed” value [1, 3] was 2% and the “% activity observed” value [1, 4] was 4%. The “% activity observed” value ([1]; protective application, single a.i. 0.5 mg a.i./l) was 12%, the “% activity observed” value (Erysiphe graminis; SL100, 80 g a.i./ha, 29 days after application) was 60% and the “% infested leaf area after 29 days” value (Erysiphe graminis; SL100, 80 g a.i./ha) was 6%.

CC(Cc1ccc(C(C)(C)C)cc1)CN1CCCCC1 (stereo not shown) [Fenpropidin] showed an inhibition at 0.05 µg/mL [1, 5] of 0% and an inhibition at 0.5 µg/mL ([1]; Blumeria graminis, foliar, protective application, single a.i. 0.5 mg a.i./l, read-out: % activity observed) of 2%.

In the case of Cc1cc(C2CC2)nc(Nc2ccccc2)n1 [Cyprodinil], the “% activity observed” value ([1]; curative application, single a.i. 25 mg a.i./l) is reported as 25%.

In the case of Fc1ccc(Oc2ccnc3cc(Cl)cc(Cl)c23)cc1 [Quinoxyfen], the inhibition at 75 g/ha (Septoria spp.; 2016 h, SC500, 75 g a.i./ha, 84 days after application, read-out: % activity observed) is reported as 12%, the “% infested leaf after 84 days” value (Septoria spp.; SC500, 75 g a.i./ha) is reported as 85% and the inhibition at 0.1 µg/mL (Uncinula necator; Erysiphe necator, single a.i. 0.1 mg a.i./l, read-out: % activity observed) is reported as 48%. It also gave an inhibition at 1 µg/mL (Uncinula necator; Erysiphe necator, single a.i. 1 mg a.i./l, read-out: % activity observed) of 58%, an inhibition at 0.05 µg/mL [1, 5] of 1% and an inhibition at 0.1 µg/mL ([1]; Blumeria graminis, foliar, curative application, single a.i. 0.1 mg a.i./l, read-out: % activity observed) of 3%. The inhibition at 0.25 µg/mL ([1]; Blumeria graminis, foliar, curative application, single a.i. 0.25 mg a.i./l, read-out: % activity observed) was 6%, the inhibition at 0.5 µg/mL ([1]; Blumeria graminis, foliar, curative application, single a.i. 0.5 mg a.i./l, read-out: % activity observed) was 4% and the inhibition at 1 µg/mL ([1]; Blumeria graminis, foliar, curative application, single a.i. 1 mg a.i./l, read-out: % activity observed) was 7%. It also gave an inhibition at 0.05 µg/mL ([1]; Blumeria graminis, foliar, protective application, single a.i. 0.05 mg a.i./l, read-out: % activity observed) of 0%, an inhibition at 0.1 µg/mL ([1]; Blumeria graminis, foliar, protective application, single a.i. 0.1 mg a.i./l, read-out: % activity observed) of 1% and an inhibition at 0.25 µg/mL ([1]; Blumeria graminis, foliar, protective application, single a.i. 0.25 mg a.i./l, read-out: % activity observed) of 3%. For the same molecule, the inhibition at 75 g/ha (Erysiphe graminis; Blumeria graminis, 696 h, SC500, 75 g a.i./ha, 29 days after application, read-out: % activity observed) was 33% and the “% infested leaf area after 29 days” value (Erysiphe graminis; SC500, 75 g a.i./ha) was 10%.

For CCCC(Cn1cncn1)c1ccc(Cl)cc1Cl (stereo not shown) [Penconazole], the “% activity observed” value (Uncinula necator; single a.i. 0.1 mg a.i./l) was 7% and the “% activity observed” value (Uncinula necator; single a.i. 1 mg a.i./l) was 42%.
